In US20250144179A1, “PEPTIDE HORMONE TO PREVENT OR TREAT VASOSPASM, BRAIN INJURY OR CEREBRAL EDEMA” (UNIVERSITY OF FLORIDA RESEARCH FOUNDATION, INCORPORATED, priority 2022, published 2025):

Key:
Assay type in all cases: in vivo, mouse
[1] = system: wild-type mice, SAH model; experiment: Delayed cerebral vessel casting, MCA diameter (vasospasm) after SAH
Procedure: (§1) Synthetic adropin^34-76 peptide was supplied from Bachem (Bubendorf, Switzerland) and diluted in 0.1% BSA in saline. 0.1% BSA in saline was used as vehicle control for all experiments. […] For experiments ending at 24 hours post-SAH, an identical dose of adropin/vehicle was given again 12 hours later. For experiments ending 7 days post-SAH, adropin/vehicle was given again on days 1, 3 & 5 post-SAH. In the aneurysm rupture model, adropin was given at a dose of 450 nmol/kg starting 3 days before aneurysm induction (elastase injection). Adropin was given every other day until sacrifice
SAH was modeled using the anterior circulation single autologous blood injection method^25,33 with minor adjustments. Mice were anesthetized with ketamine (100 mg/kg) and xylazine (10 mg/kg) before removing hair from scalp and cleaning with serial betadine—saline washes. […]
(§2) Middle cerebral artery diameter were measured as previously reported.^36,37 One week post-SAH, mice were deeply anesthetized with ketamine and xylazine before being serially perfused through the left ventricle with PBS (5 mL), 4% PFA (15 mL), and 20% India ink dissolved in 5% gelatin. […] Brains were imaged and analyzed by an observer blinded to group assignment. The narrowest diameter within the first 2000 μm of the middle cerebral artery (MCA) after the terminal interior carotid artery bifurcation (M1 segment) was measured to assess vasospasm. […]

eNOS^−/− mice, SAH model = experiment: MCA diameter (vasospasm) after SAH in eNOS knockout mice; conditions: one week post-SAH
Text: All animal experiments were approved by IACUC (Institutional Animal Care and Use Committee) and performed in accordance with ARRIVE (Animal Research: Reporting of In Vivo Experiments) guidelines. All animals were 12-15-week-old females and were housed in pathogen-free housing with ad libitum food and water and 12-h light/dark cycling. Wild-type C57B1/6 mice were received from Charles River Labs (Wilmington, Mass.) and eNOS knockout mice were obtained from The Jackson Laboratory (Bar Harbor, Maine). eNOS knockout breeding pairs were genotyped prior to breeding and F1 progeny used for all experiments. The following primers were used for genotyping: eNOS knockout (Nos3^−/−): F-5′-[…]-3′, R-5′-[…]-3′. All animals underwent twice daily monitoring from institutional animal care services staff and/or investigators. […]
as §2

[2] = system: wild-type mice, SAH model; experiment: Corner-turn preference test (sensorimotor deficits) after SAH
Procedure: as §1
SAH was modeled using the anterior circulation single autologous blood injection method^25,33 with minor adjustments. Mice were anesthetized with ketamine (100 mg/kg) and xylazine (10 mg/kg) before removing hair from scalp and cleaning with serial betadine—saline washes. The tail was also prepped from the base extending 1 cm distally. Mice were then fixed into a stereotaxic frame and body temperature maintained at 37° C. The scalp was incised along the sagittal suture from bregma to the nasal bone. The skin was reflected and a burr hole was drilled 5.0 mm rostral of bregma and 0.5 mm right laterally to avoid puncturing dural venous sinuses. […]

occludin = experiment: Western blot of occludin in brain after SAH; conditions: wild-type mice, adropin 450 nmol/kg i.p. vs vehicle
Procedure: (§3) Synthetic adropin^34-76 peptide was supplied from Bachem (Bubendorf, Switzerland) and diluted in 0.1% BSA in saline. 0.1% BSA in saline was used as vehicle control for all experiments. Adropin (450 nmol/kg) or an equivalent volume of vehicle was delivered via intraperitoneal injection 15 minutes post-SAH. For experiments ending at 24 hours post-SAH, an identical dose of adropin/vehicle was given again 12 hours later. For experiments ending 7 days post-SAH, adropin/vehicle was given again on days 1, 3 & 5 post-SAH. In the aneurysm rupture model, adropin was given at a dose of 450 nmol/kg starting 3 days before aneurysm induction (elastase injection). Adropin was given every other day until sacrifice
(§4) SAH was modeled using the anterior circulation single autologous blood injection method^25,33 with minor adjustments. Mice were anesthetized with ketamine (100 mg/kg) and xylazine (10 mg/kg) before removing hair from scalp and cleaning with serial betadine—saline washes. The tail was also prepped from the base extending 1 cm distally. Mice were then fixed into a stereotaxic frame and body temperature maintained at 37° C. The scalp was incised along the sagittal suture from bregma to the nasal bone. […]
(§5) At 24 hours or 7 days post-SAH, mice were deeply anesthetized and perfused with 10 mL of ice-cold PBS. […] Samples were centrifuged, supernatant collected, and protein quantified via Bradford assay. […]

MMP9 = experiment: Western blot of MMP9 in brain after SAH; conditions: wild-type mice, adropin 450 nmol/kg i.p. vs vehicle
Procedure: as §3, §4, §5

[3] = treatment initiated at 24 hours post-SAH

For “adropin (CHSRSADVDSLSESSPNSSPGPCPEKAPPPQKPSHEGSYLLQP) [Synthetic adropin^34-76 peptide from Bachem]”, the “ipsilateral MCA diameter (cerebral vasospasm)” value ([1]; seven days post-SAH, treatment started 15 minutes post-SAH) was “adropin-treatment reversed this phenotype”, the “cerebral vasospasm (MCA diameter)” value [1, 3] was “strong trend for reduced cerebral vasospasm” and the “vasospasm (MCA diameter)” value (eNOS^−/− mice, SAH model) was “adropin did not prevent vasospasm”. For the same substance, the sensorimotor deficits [2, 3] was “ability of adropin treatment to improve sensorimotor deficits was maintained”, the “corner turn preference (sensorimotor deficit)” value ([2]; up to one week post-SAH, treatment started 15 minutes post-SAH) was “reducing this sensorimotor deficit and normalizing corner turn preference” and the “occludin expression (immunoblot)” value (occludin) was “preserved the expression of occludin”. The “cleaved MMP9 levels (immunoblot)” value (MMP9) was “an effect abolished by adropin treatment”.
